Assay results as given in patent publication US20060210479A1 (Dow Global Technologies Inc., priority 2004, published 2006).
Read-outs that look alike come from different tables or passages of the source.

Legend:
[1] = test system: LNCaP cell line; assay: Chelate permeability: fluorescence of cytoplasm and membrane fractions; type: cell-based, human
[2] = test system: T84 cell line; assay: as above; type: cell-based, human; details: 1 mM chelate, 2 h, Table 4
[3] = test system: Caco-2 cell line; assay: as above; type: cell-based, human
[4] = test system: RBL-2H3 cell line; assay: as above; type: cell-based, rat
Description: Tb-PCTMB (Tb(III) 3,6,9-tris(methylene phosphonic acid n-butyl ester)-3,6,9,15-tetraazabicyclo[9.3.1]pentadeca-1(15),11,13-triene) was tested for permeability to abnormal and disease-state cells.
RBL-2H3 is a rat basophilic leukemia cell line. These cells were grown in Iscove's Medium supplemented with 2 mM L-glutamnine, penicillin/streptomycin (100 IU/mL, 100 μg/mL) and 10% FBS. Cells were maintained at 5% CO2 and 95% humidity. PZ-HPV-7 cell line was derived from epithelial cells cultured from normal prostate tissue. They were grown in Keratinocyte-Serum Free Medium with human recombinant EGF and bovine pituitary extract supplemented with 50 μg/mL gentamicin and penicillin/streptomycin (100 IU/mL, 100 μg/mL). All media and supplements were purchased from Gibco BRL (Grand Island, N.Y., USA). All cell lines were obtained from ATCC and were maintained at 37° C., 5% CO2 and 95% humidity.
Cells were grown to confluence in T-150 flasks (about 2×10^6 cells). […] Cells were then removed from the flask by manual scraping. Cells were transferred to a 50-mL conical tube and centrifuged (400×g) for 5 minutes and the test material removed.
Cells were grown as described herein (Example 1). Cells were grown to confluence in T-150 flask (about 2×10^6 cells). […] Cells were then removed from the flask by manual scraping. Cells were transferred to a 50-mL conical tube and centrifuged (400×g) for 5 minutes and the test material removed.
Furthermore, one analogue, QCTMP (FIG. 26), having lesser lipophilic character (a free phosphonic acid moiety) was evaluated. […] In this study, the cytoplasm and membrane fractions were extracted by Mem-PER Eukaryotic Membrane Protein Extraction Reagent Kit as described by the manufacturers (Pierce Biotechnology, Rockford, Ill.) and analyzed by a Fluor-S Multilmager.

[5] = test system: C33-A cells; details: 1 mM EuQCTME, up to 240 min
Description: (§1) Cells were counted and plated in a 20×100 mm cell culture dish at a density of about 2×10^6 cells.
(§2) After incubation cells were collected by trypsinization and gently centrifuged (about […]) for 10 minutes. The cell supematant was discarded, and the resulting cell pellet was washed in cold PBS (phosphate buffered saline). The cell pellet was centrifuged again (about 2000 rpm) for 10 minutes. The PBS supernatant was discarded and the cold PBS wash was repeated and centrifuged as above. After discarding the PBS supernatant, the resulting cell pellet was used for NE-PER extraction (Pierce, Rockford, Ill.) according to the manufacturer's instructions.
(§3) The resulting nuclear and cytoplasmic fractions from each time point were then placed into the wells of a 96-well white plate. Due to the volume of lysate available for measurement, the fractions were diluted 1:4 in HEPES binding buffer for a total volume of 100 liL. […] The following settings were optimized for measurement: excitation at 320 nm (band width: 35 nm), emission at 595 nm (bandwidth: 35 nm), gain 110, lag time 1 μs, integration time 2000 μs, # of flashes: 1.
(§4) Because lysate volume was in limited quantity and protein concentration was relatively low, absorbances for protein measurements were read using the formula of Kalckar (1.45 OD280-0.74OD260=mg protein/mL). Each time point measurement above (in RFU) was normalized to its corresponding protein content and recalculated as RFU/μg protein.

[6] = test system: Caco-2 cells; details: 1 mM EuQCTME, up to 240 min
Description: as §1, §2, §3, §4

[7] = test system: DU-145 cells; details: 1 mM EuQCTME, up to 240 min
Description: as §1, §2, §3, §4

[8] = test system: HLAC cells; details: 1 mM EuQCTME, up to 240 min
Description: as §1, §2, §3, §4

[9] = test system: NCM460 cells; details: 1 mM EuQCTME, up to 240 min
Description: as §1, §2, §3, §4

[10] = test system: SK-MES cells; details: 1 mM EuQCTME, up to 240 min
Description: as §1, §2, §3, §4

[11] = test system: DMBA-induced tumor tissue of buccal cheek pouch; details: 2 mM solution topical, 10 minutes; for Fluorescence/mg Cytoplasm / Fluorescence/mg Membrane: readings Adjusted Volume CNT*mm2
[12] = test system: C33-A cells; details: for EuQCTME Cell Binding (fluorescence per well): 1 mM
[13] = test system: DU145 cells; details: for EuQCTME Cell Binding (fluorescence per well): 1 mM
[14] = test system: Caco-2 cells; details: 1 mM
[15] = test system: Caco-2 cells; details: 1 mM, 1 h
Description: (§5) Before images were captured, an aliquot of the HEPES binding buffer was mounted on a slide and observed for any background fluorescence.

[16] = test system: NCM460 cells; details: 1 mM, 1 h
Description: as §5

[17] = target: HSPC194 protein (Homo sapiens, UniProt Q9P0S9); assay: Elution of HSPC194 from affinity support column by compounds; details: symbols not defined
Description: Purified HSPC194 protein was captured on an affinity support column. The unbound contaminants, which have no affinity for the ligand, are washed through the column, leaving the HSPC194 protein bound to the matrix.

[18] = 0-2000 μM, 2 hours, compared to PZ-HPV-7

HSPC194 protein, sequence (Q9P0S9 whole entry): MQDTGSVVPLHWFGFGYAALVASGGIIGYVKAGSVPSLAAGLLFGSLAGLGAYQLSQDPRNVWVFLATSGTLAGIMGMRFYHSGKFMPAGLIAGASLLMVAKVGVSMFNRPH

Question: Which results are given for CCOP(=O)([O-])CN1CCN(Cc2ccc3cc(C)ccc3n2)CCN(CP(=O)([O-])OCC)CCN(CP(=O)([O-])OCC)CC1.[Eu+3] [Eu-QCTME, Eu(III) N-(6-methyl-2-quinolylmethyl)-N′,N″,N′″-tris(methylenephosphonic acid ethyl ester)-1,4,7,10-tetraazacyclododecane]?
Answer: fluorescence in the cytoplasm, dose response [1, 18]: significant increases in fluorescence; Fluorescence/mg Cytoplasm ([1]; 1 mM chelate, 2 h, Table 4): 3881; Fluorescence/mg Membrane ([1]; 1 mM chelate, 2 h, Table 4): 2561; Fluorescence/mg Cytoplasm [2]: 4548; Fluorescence/mg Membrane [2]: 2307; fluorescence in the membrane fractions, dose response ([3]; 0-2000 μM, 2 hours): detectable quantity of fluorescence; fluorescence in the cytoplasm, dose response [3, 18]: significant increases in fluorescence; Fluorescence/mg Cytoplasm ([3]; 1 mM chelate, 2 h, Table 4): 4339; Fluorescence/mg Membrane ([3]; 1 mM chelate, 2 h, Table 4): 2524; fluorescence in the membrane fractions, dose response ([4]; 0-2000 μM, 2 hours): detectable quantity of fluorescence; fluorescence in the cytoplasm, dose response [4, 18]: significant increases in fluorescence; Fluorescence/mg Cytoplasm ([4]; 1 mM chelate, 2 h, Table 4): 4415; Fluorescence/mg Membrane ([4]; 1 mM chelate, 2 h, Table 4): 2644; nuclear signal [5]: very low; nuclear and cytoplasmic fluorescence [6]: approximately 40 pg EuQCTME per μg protein; nuclear and cytoplasmic fluorescence [7]: approximately 40 pg EuQCTME per μg protein; nuclear signal [8]: rapidly declined after an apparent initial burst; cytoplasm-associated fluorescence [9]: < 10 pg EuQCTME per μg protein; nuclear signal [9]: high nuclear signal; nuclear and cytoplasmic fluorescence [10]: approximately 40 pg EuQCTME per μg protein; fluorescence in the cytoplasm of tumor tissue compared to normal tissue [11]: significantly greater fluorescence; Fluorescence/mg Cytoplasm ([11]; Tumor 1): 3524; Fluorescence/mg Membrane ([11]; Tumor 1): 1670; Fluorescence/mg Cytoplasm ([11]; Tumor 2): 3659; Fluorescence/mg Membrane ([11]; Tumor 2): 1676; EuQCTME Cell Binding (fluorescence per well) ([12]; 2 min): 2,967; EuQCTME Cell Binding (fluorescence per well) ([12]; 5 min): 22,763; EuQCTME Cell Binding (fluorescence per well) ([12]; 15 min): 5,075; EuQCTME Cell Binding (fluorescence per well) ([12]; 30 min): 2,923; EuQCTME Cell Binding (fluorescence per well) ([12]; 45 min): 7,030; EuQCTME Cell Binding (fluorescence per well) ([12]; 60 min): 583; EuQCTME Cell Binding (fluorescence per well) ([12]; 120 min): 1,275; EuQCTME Cell Binding (fluorescence per well) ([12]; 180 min): 2,377; EuQCTME Cell Binding (fluorescence per well) ([12]; 240 min): 1,322; Totals: Normalized total area under each curve (AUC) ([12]; over 240 min): 9; EuQCTME Cell Binding (fluorescence per well) ([13]; 2 min): 27,884; EuQCTME Cell Binding (fluorescence per well) ([13]; 5 min): 10,040; EuQCTME Cell Binding (fluorescence per well) ([13]; 15 min): 747; EuQCTME Cell Binding (fluorescence per well) ([13]; 30 min): 19,868; EuQCTME Cell Binding (fluorescence per well) ([13]; 45 min): 10,987; EuQCTME Cell Binding (fluorescence per well) ([13]; 60 min): 3,235; EuQCTME Cell Binding (fluorescence per well) ([13]; 120 min): 15,644; EuQCTME Cell Binding (fluorescence per well) ([13]; 180 min): 9,038; EuQCTME Cell Binding (fluorescence per well) ([13]; 240 min): 2,506; Totals: Normalized total area under each curve (AUC) ([13]; over 240 min): 49; EuQCTME Cell Binding (fluorescence per well) ([14]; 2 min): 4,708; EuQCTME Cell Binding (fluorescence per well) ([14]; 5 min): 3,391; EuQCTME Cell Binding (fluorescence per well) ([14]; 15 min): 6,806; EuQCTME Cell Binding (fluorescence per well) ([14]; 30 min): 11,168; EuQCTME Cell Binding (fluorescence per well) ([14]; 45 min): 10,872; EuQCTME Cell Binding (fluorescence per well) ([14]; 60 min): 21,176; EuQCTME Cell Binding (fluorescence per well) ([14]; 120 min): 29,389; EuQCTME Cell Binding (fluorescence per well) ([14]; 180 min): 31,510; EuQCTME Cell Binding (fluorescence per well) ([14]; 240 min): 4,575; localization by confocal microscopy [15]: predominantly cytoplasmic localization; uptake by confocal microscopy [16]: only a minimal uptake; Elution of HSPC194 10 μM ([17]; compound at 10 μM): 0; Elution of HSPC194 50 μM ([17]; compound at 50 μM): 0
